According to PMC7549094 (Journal of Medicinal Chemistry, 2020):
In brackets after ≈: the same amount, converted by molar mass. Like-named read-outs stand apart in the source and are kept apart here.

Legend:
[1] = molecular target: wild-type (PSMB4^WT) L. tarentolae proteasome (Leishmania tarentolae, UniProt A0A640KTY7+A0A640KW57); test: chymotrypsin-like activity of purified wild-type L. tarentolae proteasome; format: biochemical; conditions: n = 3 technical replicates
[2] = microsomal extraction ratio, 1 h incubation in microsomes
[3] = microsomal extraction ratio, 1 h incubation in microsomes; remark: listed apart in the source
[4] = microsomal extraction ratio, 1 h incubation in microsomes; remark: listed apart in the source
[5] = molecular target: T1, purified L. donovani proteasome (Leishmania donovani, UniProt A0A3Q8IIY4+A0A3S7XA80); test: chymotrypsin-like activity of purified L. donovani proteasome; format: biochemical; conditions: half-maximum inhibition of chymotrypsin-like activity of purified L. donovani proteasome; mean, n = 4 technical replicates
T1 sequence (A0A3Q8IIY4 100-302): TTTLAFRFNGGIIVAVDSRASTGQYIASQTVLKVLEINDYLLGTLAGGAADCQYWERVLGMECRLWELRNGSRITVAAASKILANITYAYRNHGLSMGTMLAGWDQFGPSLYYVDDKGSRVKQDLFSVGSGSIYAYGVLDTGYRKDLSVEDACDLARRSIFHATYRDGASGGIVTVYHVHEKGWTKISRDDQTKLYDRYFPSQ
T1 sequence (A0A3S7XA80 1-206): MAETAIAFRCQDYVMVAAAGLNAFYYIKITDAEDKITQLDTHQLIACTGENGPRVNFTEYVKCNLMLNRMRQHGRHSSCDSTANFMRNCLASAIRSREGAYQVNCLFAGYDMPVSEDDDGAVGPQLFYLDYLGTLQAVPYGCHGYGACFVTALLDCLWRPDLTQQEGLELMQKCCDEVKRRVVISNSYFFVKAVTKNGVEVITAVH

[6] = microsomal extraction ratio, 1 h incubation in microsomes; remark: listed apart in the source
[7] = system: intramacrophage L. donovani amastigotes; test: L. donovani amastigote proliferation within primary mouse macrophages; format: cell-based; conditions: Leishmania donovani, Macrophage
[8] = high-throughput solubility pH 6.8; format: physicochemical; conditions: high-throughput assay format, read-out: HT sol. pH 6.8
[9] = metabolite profile in rat hepatocytes; format: in vitro ADME; conditions: 10 μM of 1 for 4 h, UV 250 nm, normalized to largest peak
[10] = pharmacokinetics, summary across preclinical species; format: in vivo, rat, dog, cynomolgus monkey; conditions: mouse, rat, and monkey plasma; single oral dose of 1
[11] = mouse plasma; oral administration of 1; dose-normalized AUC
Experimental: In Vivo PK Studies in Mice.
(§1) The solution was filtered using a 0.45 m syringe filter before dosing. Two male Balb/c mice were administered 1 intravenously via the lateral tail
(§2) vein at 5 mg/kg with a dose volume of 2.0 mL/kg. 1 was also formulated in a suspension of 0.5%
(§3) methylcellulose with 0.5% Tween 80 (0.5% MC/0.5% Tw80) in water at 2.5 mg/mL. A group of mice
(§4) (n=3) were administered 1 orally via gavage at 20 mg/kg with a dose volume of 8.0 mL/kg.
(§5) The mouse blood samples were centrifuged to separate plasma and the plasma samples were frozen at -
In Vivo PK Studies in Rats.
Two male Wistar rats were administered
(§6) 1 intravenously via the lateral tail vein at 3 mg/kg with a dose volume of 1.0 mL/kg. 1 was also formulated
(§7) in a suspension of 0.5% methylcellulose with 0.5% Tween 80 (0.5% MC/0.5% Tw80) in water at 2.0
(§8) mg/mL. The second group of rats (n=3) were administered 1 orally via gavage at 10 mg/kg in suspension
(§9) with a dose volume of 5.0 mL/kg. Six blood samples of 100 μL each were collected serially from each
(§10) animal via the saphenous vein up to 24 hours after dosing. The rat blood samples were centrifuged to
(§11) separate plasma and the plasma samples were frozen at -20°C until analysis.
In Vivo PK Studies in Dogs.
(§12) The solution was filtered using a 0.45 m syringe filter before dosing. Three male Beagle dogs were administered 1 intravenously via saphenous
(§13) vein at 0.3 mg/kg with a dose volume of 0.1 mL/kg. 1 was also formulated in a suspension of 0.5%
(§14) methylcellulose with 0.5% Tween 80 (0.5%MC/0.5% Tween 80) in water at 1.0 mg/mL. The second
(§15) group of male dogs (n=2) were administered 1- orally via gavage at 1.0 mg/kg with a dose volume of 1.0
(§16) mL/kg. Seven blood samples of 250 µL each were collected serially from each animal via the jugular vein
(§17) The dog blood samples were centrifuged to separate plasma and the plasma
(§18) samples were frozen at -20 °C until analysis.

[12] = metabolite profile in dog hepatocytes; format: in vitro ADME; conditions: 10 μM of 1 for 4 h, UV 250 nm, normalized to largest peak
[13] = metabolite profile in monkey hepatocytes; format: in vitro ADME; conditions: 10 μM of 1 for 4 h, UV 250 nm, normalized to largest peak
[14] = metabolite profile in human hepatocytes; format: in vitro ADME; conditions: 10 μM of 1 for 4 h, UV 250 nm, normalized to largest peak
[15] = metabolite profile in mouse hepatocytes; format: in vitro ADME; conditions: 10 μM of 1 for 4 h, UV 250 nm, normalized to largest peak
[16] = pharmacokinetics in cynomolgus monkey; format: in vivo; conditions: monkey plasma; oral administration of 1; dose-normalized AUC
Experimental: In Vivo Intravenous PK Study in Non-human Primates. The IV PK study in non-human primates was carried out at Covance research facility in Greenfield, Indiana. The research facility is accredited by AAALAC (Association for Assessment and Accreditation of Laboratory Animal Care). The male Cynomolgus monkeys were approximately 4.5 years of age and weighed 4.2 to 5.0 kg. 1 was administered […]
75% polyethylene glycol (PEG300) as described in the earlier section. Doses were administered once by intravenous injection via the saphenous vein at a dose of 0.3 mg/kg with a dosing volume of 0.1 ml/kg.
Clinical observations and food consumption determinations were performed on all animals. Blood samples for PK analysis were collected from all animals via the femoral vein approximately 0.083, 0.25, […]
In Vivo Oral PK Study in Non-human Primates. The PO PK study in non-human primates was conducted at a Novartis facility using Non-naïve male Cynomolgus monkeys weighing 3.8 to 4.0 kg. The monkeys were fasted overnight and fed 2 hours post-dose. 1 was formulated in a suspension of 0.5% […]
gavaged with 5 mL/kg of the suspension for a total dose of 10 mg/kg. The gavage tubing was flushed with 5 mL of water to ensure the gavage tubing was cleared of the formulation. Blood samples for PK analysis were collected from all animals via the saphenous veins approximately 0.25, 0.5, 1, 2, 4, 7, 24, 48, and 72 hours post-dose.

[17] = rat plasma; oral administration of 1; dose-normalized AUC
[18] = dog plasma; oral administration of 1; dose-normalized AUC
Experimental: In Vivo PK Studies in Mice.
as §1, §2, §3, §4, §5
In Vivo PK Studies in Rats.
Two male Wistar rats were administered
as §6, §7, §8, §9, §10, §11
In Vivo PK Studies in Dogs.
as §12, §13, §14, §15, §16, §17, §18

Sequence of wild-type (PSMB4^WT) L. tarentolae proteasome (A0A640KW57 100-302): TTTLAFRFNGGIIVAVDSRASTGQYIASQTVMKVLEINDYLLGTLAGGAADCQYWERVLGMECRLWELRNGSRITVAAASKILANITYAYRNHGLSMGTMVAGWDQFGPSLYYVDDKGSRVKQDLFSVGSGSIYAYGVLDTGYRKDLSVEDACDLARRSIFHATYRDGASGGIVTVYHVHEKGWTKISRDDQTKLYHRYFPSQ
Sequence of wild-type (PSMB4^WT) L. tarentolae proteasome (A0A640KTY7 1-206): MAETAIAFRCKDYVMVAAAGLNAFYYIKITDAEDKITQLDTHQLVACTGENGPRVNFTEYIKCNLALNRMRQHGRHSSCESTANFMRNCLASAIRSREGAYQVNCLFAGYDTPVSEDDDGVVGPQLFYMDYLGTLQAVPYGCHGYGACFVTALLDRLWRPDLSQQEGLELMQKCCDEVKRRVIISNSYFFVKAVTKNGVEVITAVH

Structure (SMILES): CC(C)C[C@H](NC(=O)[C@H](Cc1ccccc1)NC(=O)c1cnccn1)B(O)O [Bortezomib, bortezomib, reference compound]
- IC50 [1]: 4 nM

Structure (SMILES): Cc1nc(C)c(C(=O)Nc2ccc(F)c(-c3nc4ncc(-c5ccccn5)cn4n3)c2)o1 [compound 2]
- ER dog [2]: 0.46
- ER rat [3]: < 0.27
- ER human [4]: 0.3

Structure (SMILES): Cc1nc(C)c(C(=O)Nc2ccc(F)c(-c3nc4ncc(-c5ncccc5C(F)F)cn4n3)c2)o1 [compound 3]
- IC50 [5]: 60 nM
- ER dog [2]: 0.57
- ER rat [3]: < 0.18
- ER mouse [6]: 0.51
- EC50 [7]: 110 nM
- solubility kinetic [8]: 21 µM (≈ 10.1 µg/mL)
- ER human [4]: 0.55

Structure (SMILES): Cc1nc(C)c(C(=O)Nc2ccc(F)c(-c3nc4ncc(-c5ncccc5Cl)cn4n3)c2)o1 [compound 4]
- IC50 [5]: 100 nM
- EC50 [7]: 50 nM
- solubility kinetic [8]: 7 µM (≈ 3.25 µg/mL)

Structure (SMILES): COc1cccnc1-c1cnc2nc(-c3cc(NC(=O)c4oc(C)nc4C)ccc3F)nn2c1 [compound 5]
- ER dog [2]: 0.56
- ER mouse [6]: 0.4
- EC50 [7]: 70 nM
- solubility kinetic [8]: 7 µM (≈ 3.22 µg/mL)
- ER human [4]: < 0.21

Structure (SMILES): Cc1nc(C)c(C(=O)Nc2ccc(F)c(-c3nc4ncc(-c5ncccc5CO)cn4n3)c2)o1 [compound 6]
- IC50 [5]: 70 nM
- abundance rat [9]: + (+ ≤25%)
- metabolite exposure relative to 1 [10]: less than 10%
- metabolite exposure relative to 1 [11]: 1.5%
- abundance dog [12]: + (+ ≤25%)
- EC50 [7]: 500 nM
- abundance monkey [13]: + (+ ≤25%)
- abundance human [14]: + (+ ≤25%)
- abundance mouse [15]: + (+ ≤25%)
- metabolite exposure relative to 1 [16]: 1.7%
- metabolite exposure relative to 1 [17]: 1.5%

Structure (SMILES): Cc1nc(CO)c(C(=O)Nc2ccc(F)c(-c3nc4ncc(-c5ncccc5C)cn4n3)c2)o1 [compound 7]
- abundance rat [9]: + (+ ≤25%)
- metabolite exposure relative to 1 [10]: 5–17%
- metabolite exposure relative to 1 [11]: 4.5%
- abundance dog [12]: + (+ ≤25%)
- abundance monkey [13]: + (+ ≤25%)
- abundance human [14]: + (+ ≤25%)
- abundance mouse [15]: + (+ ≤25%)
- metabolite exposure relative to 1 [16]: 11%
- metabolite exposure relative to 1 [17]: 17%

Structure (SMILES): Cc1cccnc1-c1cnc2nc(-c3cc(NC(=O)c4oc(CO)nc4C)ccc3F)nn2c1 [compound 8]
- abundance rat [9]: + (+ ≤25%)
- metabolite exposure relative to 1 [10]: 0.2–5%
- metabolite exposure relative to 1 [11]: 0.2%
- abundance dog [12]: ++ (++ ≤ 75%>25%)
- abundance monkey [13]: + (+ ≤25%)
- abundance human [14]: + (+ ≤25%)
- metabolite exposure relative to 1 [16]: 5.1%
- metabolite exposure relative to 1 [18]: 120%
- metabolite exposure relative to 1 [17]: 1.5%
